IC50 data for one compound are collected here from publication PMC10160982 (Proceedings of the National Academy of Sciences of the …, 2023).

This assay addresses SARS-CoV-2 M^pro (Severe acute respiratory syndrome coronavirus 2, UniProt P0DTD1). The experiment in a line: FRET-based SARS-CoV-2 Mpro inhibition activity assay. As to conditions: SARS-CoV-2 M^pro inhibition IC50, FRET-based protease assay. In kind it is biochemical.

Each structure is given as a SMILES string.

Turning to `COc1cc(O)ccc1/C=C/C(=O)c1ccc(O)cc1` [Echinatin], the IC50 worked out at 22.5 µM.

Usually IC50 stands for the concentration that inhibits the measured activity by half. Read a high IC50 as lower potency.
